Measurements: patent publication US20130337564A1, “Treatment of Pluripotent Cells” (Janssen Biotech, Inc., priority 2012, published 2013)
Where “and” joins values, the source holds several entries; their conditions need not be identical. Identical values can stand only once.

Assays:
[1] = tested on: human embryonic stem cells (H9 line); assay: High content screening assay: cell number (proliferative response); type: cell-based; details: for Proliferative Response Fold over Wnt 3a/AA control: normalised to Wnt 3a/AA control
Summary of the method: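 H9 hESCs on MATRIGEL treated days 1-2 with 10 μM compound in DMEM:F12, 0.5% FCS, 100 ng/ml activin A; days 3-4 with 2% FCS plus activin A without compound. Fixed cells immunostained for Sox17 or HNF-3beta with Draq5 nuclear counterstain. Cell number and staining intensity quantified by high-content imaging, 12 fields/well.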

[2] = tested on: human embryonic stem cells (H9 or H1 lines); assay: Plate reader (MTS) proliferation assay; type: cell-based; details: for Average: average of replicate raw data; for Average (of Raw Data): plate reader raw signal, mean of replicate wells; for Raw Data: replicate wells, plate reader proliferation screen of GSK-3B inhibitors; for activity at 10 µM: Homo sapiens, Embryonic stem cell, 96 h, 10 μM test compound with 100 ng/ml activin A on days 1-2, MTS OD490 on day 4, vs Activin A/Wnt3a positive control, strong and moderate hits
Summary of the method: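 H9 or H1 cells on Matrigel, washed, then given DMEM:F12 with 0.5% FCS, 100 ng/ml activin A and 10 μM compound (days 1–2), then 2% FCS plus activin A (days 3–4). MTS added day 4, OD490 read after 1.5–4 h at 37 °C; triplicates as percent of activin A/Wnt3a control.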

[3] = cell number in the wells analysed for HNF-3b expression
[4] = cell number in the wells analysed for SOX-17 expression
[5] = proliferation of human embryonic stem cells
[6] = relative to AA/Wnt3a/DMSO positive control (100.0) of the same plate

O=C1NC(=O)C2=C1c1cn(c3ncccc13)CCOCCOCCn1cc2c2cccnc21 [Compound 180, 6,7,9,10,12,13-Hexahydro-20H-5,23:14,19-di(metheno)dipyrido[2,3-h:3′,2′-n]pyrrolo[3,4-k][1,4,7,16]dioxadiazacyclooctadecine-20,22(21H)-dione]
Proliferative Response Total cells [1, 3]: 4
Proliferative Response Fold over Wnt 3a/AA control [1, 3]: 0.003155 fold
Proliferative Response Total cells [1, 4]: 3
Proliferative Response Fold over Wnt 3a/AA control [1, 4]: 0.001796 fold
Average [2]: 0.1247
Average (of Raw Data) [2, 5]: 0.3793
% Control ([2]; proliferation of human embryonic stem cells, AA/Wnt3a = 100.0, no cells = 0.0): 29.3%
% Control [2, 6]: 13.4%
Raw Data [2]: 0.1239 and 0.1233 and 0.1269

O=C1NC(=O)C2=C1c1cn(c3ncccc13)CCOCCOCCOCCOCCOCCn1cc2c2cccnc21 [Compound 168, 10,11,13,14,16,17,19,20,22,23,25,26-Dodecahydro-1H-9,4:27,32-di(metheno)dipyrido[2,3-q:3′,2′-w]pyrrolo[3,4-t][1,4,7,10,13,16,25]pentaoxadiazacycloheptacosine-1,3(2H)-dione]
Proliferative Response Total cells [1, 3]: 57
Proliferative Response Fold over Wnt 3a/AA control [1, 3]: 0.04523 fold
Proliferative Response Total cells [1, 4]: 118
Proliferative Response Fold over Wnt 3a/AA control [1, 4]: 0.07046 fold
Average [2]: 0.3421
% Control [2, 6]: 36.8%
Raw Data [2]: 0.3702 and 0.3193 and 0.3368

CN(C)c1cccc(-n2cc(C3=C(c4nn(CCO)c5ccccc45)C(=O)NC3=O)c3ccccc32)c1 [Compound 145, 3-{1-[3-(Dimethylamino)phenyl]-1H-indol-3-yl}-4-[1-(2-hydroxyethyl)-1H-indazol-3-yl]-1H-pyrrole-2,5-dione]
Proliferative Response Total cells [1, 3]: 2907
Proliferative Response Total cells [1, 4]: 4914
activity at 10 µM [2]: 61.1%
Average [2]: 0.9191

CN(CCO)CCCn1nc(C2=C(c3cn(-c4cccnc4)c4ccccc34)C(=O)NC2=O)c2ccccc21 [Compound 198, 3-(1-{3-[(2-Hydroxyethyl)(methyl)amino]propyl}-1H-indazol-3-yl)-4-(1-pyridin-3-yl-1H-indol-3-yl)-1H-pyrrole-2,5-dione]
Proliferative Response Total cells [1, 3]: 2594
Proliferative Response Total cells [1, 4]: 2386
activity at 10 µM [2]: 70.7%
Average [2]: 1.1253

Cc1c[nH]c(-c2cnc(NCCNc3ccc(C#N)cn3)nc2-c2ccc(Cl)cc2Cl)n1 [Compound 221, 6-[(2-{[4-(2,4-Dichlorophenyl)-5-(4-methyl-1H-imidazol-2-yl)pyrimidin-2-yl]amino}ethyl)amino]pyridine-3-carbonitrile]
fold induction at 10 µM ([1]; Homo sapiens, Embryonic stem cell, 10 μM test compound with 100 ng/ml activin A on days 1-2, H9, total cell number by IN Cell Analyzer, strong and moderate hits, read-out: Proliferative Response, Fold over Wnt 3a/AA control): 1.38
Proliferative Response Total cells [1, 3]: 21203
Proliferative Response Total cells [1, 4]: 21070
activity at 10 µM [2]: 131%
Average [2]: 1.8228
Average (of Raw Data) [2, 5]: 0.4291
